Reference: patent US7423020B2, “Treatment of mood disorders by administration of SMR1” (Institut Pasteur, priority 2001, dated 2008)
Where a SMILES comes first, the peptide text is derived from it.

Tests used:
NEP [1] = biological target: T1, NEP (Rattus norvegicus, UniProt P07861); assay: Met-enkephalin hydrolysis by rat spinal cord slices and membrane preparations, RP-HPLC analysis; assay type: biochemical; details: 10 μM; spinal cord slices; 20 min at 25° C.; Met-enkephalin 10 μM; read-out: inhibition of Met-enkephalin degradation (RP-HPLC)
T1 construct: incubations of membrane and fresh tissue slice preparations from nervous tissues; from tissue; host or cells: rat spinal cord (dorsal zone), fresh slices or 100 000 x g membrane fraction
T1 sequence (P07861 1-750): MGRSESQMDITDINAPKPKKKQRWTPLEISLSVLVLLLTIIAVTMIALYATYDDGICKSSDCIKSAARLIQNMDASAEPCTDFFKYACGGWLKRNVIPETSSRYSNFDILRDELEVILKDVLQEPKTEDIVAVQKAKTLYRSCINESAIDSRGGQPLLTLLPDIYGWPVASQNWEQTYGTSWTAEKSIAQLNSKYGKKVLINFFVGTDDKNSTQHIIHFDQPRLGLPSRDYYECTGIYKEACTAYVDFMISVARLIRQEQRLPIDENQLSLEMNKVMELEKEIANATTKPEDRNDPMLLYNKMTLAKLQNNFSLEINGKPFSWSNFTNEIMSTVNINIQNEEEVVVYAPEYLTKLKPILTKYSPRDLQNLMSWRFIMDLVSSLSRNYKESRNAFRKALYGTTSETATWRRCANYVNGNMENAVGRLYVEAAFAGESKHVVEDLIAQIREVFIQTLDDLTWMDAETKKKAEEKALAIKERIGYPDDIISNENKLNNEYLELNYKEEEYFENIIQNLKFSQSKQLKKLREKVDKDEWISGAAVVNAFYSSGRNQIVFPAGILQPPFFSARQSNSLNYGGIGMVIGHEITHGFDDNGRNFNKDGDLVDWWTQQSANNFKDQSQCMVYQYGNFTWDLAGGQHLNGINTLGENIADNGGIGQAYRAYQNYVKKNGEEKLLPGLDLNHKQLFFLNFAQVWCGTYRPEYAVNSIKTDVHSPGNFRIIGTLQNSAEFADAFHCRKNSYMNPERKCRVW
Experimental: The organs are rapidly removed, dissected on ice, freed of nerve fibers and of adipose tissues and then washed in cold oxygenated glucose-and bicarbonate-containing Krebs Ringer (KRBG) solution, whose composition is the following: 120 mM NaCl-5 mM KCl-1.2 mM KH2PO4-27.5 mM NaHCO3-2.6 mM CaCl2-0.67 mM MgSO4-5.9 mM glucose. The slices of tissues are prepared either manually with the aid of a scalpel (1-2 mm thick), or mechanically with the aid of a “Tissue Chopper” (1 mm thick). Slices are then dispersed into reaction tubes where they are subjected to three successive washes in ice-cold oxygenated KRBG. […] The organs dissected out and washed in ice-cold KRBG are homogenized at 4° C. in 10 volumes (vol./wt.) of 50 mM Tris/HCl buffered at pH 7.2, using a Teflon-glass homogenizer (3×5 sec.). A first centrifugation of 5 min. at 1000×g and 4° C. makes it possible to remove the tissular debris and the nuclei in the pellet. A second centrifugation of the supernatant at 100 000×g and 5° C. concentrates the membrane fraction into the pellet, which will be superficially washed three times with cold Tris/HCl buffer and resuspended in fresh buffer using a Kontes homogenizer, aliquoted and stored at -80° C. while waiting to be used as enzyme source, at least until three months. For the experiments of analysis of the NEP peptidase activity, an ex vivo model using incubations of membrane and fresh tissue slice preparations from nervous tissues that are known to be appropriate for exploring NEP peptidase activity: i.e. the dorsal zone of rat spinal cord, was first developed. The metabolism rate of the NEP-sensitive peptides was measured using the both NEP substrates involved in the signaling of the nociceptive response: the neuropeptides Met-enkephalin and Substance P. […] (NEN, 12.5-25 nM) were used. The objective was to measure the NEP-specific endoproteolysis of these substrates. […] Furthermore, for studying the functional role of […] NO: 1), the reaction was carried out in the presence of the SMR1-peptide alone or combined with specific inhibitors of membrane peptidases which could inactivate the […] NO: 1) peptide by cleaving its C-terminal end: an inhibitor of carboxypeptidase […], 10 μM, Sigma) and an inhibitor of dipeptidylpeptidase IV (DPPIV inhibitor, 10 μM, Roche). […] Samples are kept at -30° C. until the measurement of their intact substrate and its metabolites content. The membrane preparations are preincubated in 50 mM Tris/HCl buffered at pH 7.2 and containing 10 μM Bestatin, at 25, 30 or 37° C. in constantly shaken water, in the presence or in the absence of NEP inhibitor. […] Samples are kept at -30° C. until the measurement of their intact substrate and its metabolites content. HPLC is a highly resolutive procedure that allows one to isolate, and detect by coupled spectrophotometer analysis, the non-radioactive peptides whose concentration is at least 1 to 10 μM. The C-18 RP-HPLC is based on the same principle as the C-18 Sep-Pak cartridge. The chromatographic analyses were used to study the hydrolysis of Met-Enkephalin, that were done on a C-18 LUNA analytical column (150×4.6 mm inner diameter, AIT) packed with 5 μm-diameter beads. […] Their identification and relative quantification (peak height) are checked by continuously monitoring the UV absorbance at 254 nm of column outflow. In first series of experiment, the slices and the membrane preparations of spinal cord tissues were incubated at 30° C. in a 1 ml final volume of KRBG, and at 37° C. in a 0.25 ml final volume of Tris/HCl 50 mM, pH 7.2, respectively.

NEP [2] = biological target: T1, NEP; assay: 3H-Substance P hydrolysis by rat spinal cord slices; assay type: biochemical; details: 25° C., over 30 min incubation, read-out: inhibition of Substance P degradation
Experimental: For the experiments of analysis of the NEP peptidase activity, an ex vivo model using incubations of membrane and fresh tissue slice preparations from nervous tissues that are known to be appropriate for exploring NEP peptidase activity: i.e. the dorsal zone of rat spinal cord, was first developed. […] (NEN, 12.5-25 nM) were used.
The objective was to measure the NEP-specific endoproteolysis of these substrates.
The C-18 Sep-Pak cartridges (Waters) were used to analyze the hydrolysis of the radiolabeled peptides: they separate compounds according to their differences in polarity. This solid-phase extraction procedure allows isolating the substrate from its metabolites, since the hydrophobic character of the peptide metabolites is reduced or even lost compared to the intact peptide substrate.
The radioactivity of eluted and isolated compounds is determined by liquid scintillation spectrometry.

inhibition at 10 µM (NEP [1]): 70% | inhibition at 10 µM (NEP [2]): 75%
SMILES: N=C(N)NCCC[C@H](NC(=O)[C@@H]1CCCN1C(=O)[C@H](CC(N)=O)NC(=O)[C@H](Cc1c[nH]cn1)NC(=O)[C@@H](N)CCC(N)=O)C(=O)O [SMR1-QHNPR, QHNPR] (H-QHNPR-OH; N-terminus and C-terminus assumed)
